According to article PMC4811503, “A method for quantification of exportin-1 (XPO1) occupancy by Selective Inhibitor of Nuclear Export (SINE) compounds” (Oncotarget, 2015):
pIC50: −log10 of the molar value. Several values for one entry are separate records, joined by “and”; a condition that tells them apart may be missing. Equal values may be shown once. Read-outs that look alike come from different tables or passages of the source.

Columns and labels:
MM.1S = assay: MTT cytotoxicity assay; type: cell-based; conditions: Homo sapiens, MM1.S
AML2 = assay: MTT cytotoxicity assay; type: cell-based
AML3 = assay: MTT cytotoxicity assay; type: cell-based
HT1080 = assay: MTT cytotoxicity assay; type: cell-based; conditions: Homo sapiens, HT-1080, read-out: Selinexor IC50 (μM)
HEL = assay: MTT cytotoxicity assay; type: cell-based; conditions: Homo sapiens, read-out: Selinexor IC50 (μM)
Kasumi-6 = assay: MTT cytotoxicity assay; type: cell-based; conditions: read-out: Selinexor IC50 (μM)
THP-1 = assay: MTT cytotoxicity assay; type: cell-based; conditions: Homo sapiens, read-out: Selinexor IC50 (μM)
A549 = assay: MTT cytotoxicity assay; type: cell-based; conditions: Homo sapiens, read-out: Selinexor IC50 (μM)
UCH1 = assay: MTT cytotoxicity assay; type: cell-based; conditions: read-out: Selinexor IC50 (μM)
LS174T = assay: MTT cytotoxicity assay; type: cell-based; conditions: Homo sapiens, read-out: Selinexor IC50 (μM)
[1] = humans; clinical PK analysis, no reference given; cited from earlier work
XPO1 [2] = target: T1, XPO1 (Homo sapiens, UniProt O14980); assay: XPO1 occupancy assay in cultured cell lines (biotinylated probe pull-down, Simple Western); type: cell-based; parameters: Cells were collected, washed with PBS, and lysed with RIPA Buffer; endogenous in cells; host or cells: MM.1S
Description: b-LMB was tested for the ability to bind XPO1 protein. First, a dose-response curve was generated by exposing MM.1S cells to increasing concentrations of b-LMB (0 – 500 nM) for 1.5 hours in culture. The cells were then collected, lysed, and a portion of the lysate (input) was reserved prior to incubating the remaining lysate with streptavidin-tagged beads overnight. After extensive washes, b-LMB bound XPO1 was eluted from the beads, and XPO1 from both input and bead eluate was detected and quantified by Simple Western on Peggy Sue. Simple Western allows for the chemiluminescent detection of proteins from small volumes of samples that are run through a matrix-filled capillary. The signal is detected by a CCD camera which generates a digital image and then reports quantitative results. […] The protein signals for XPO1 detected by Simple Western in Figure 2A were reported as mean peak areas and were used to compare levels of XPO1 present in each sample to produce a graphical representation of the ratio of free XPO1 detected at each concentration of b-LMB (Figure 2B). “Ratio of bound XPO1” is defined as the ratio of the mean peak area of b-LMB bound XPO1 detected in the eluate compared to the mean peak area of all XPO1 detected in the input lysate, while “free-fraction” refers to the amount of XPO1 not occupied by SINE compound, as described later.
The cells were then collected and processed for the XPO1 occupancy assay. […] For these assays, the “ratio of free-fraction XPO1” is calculated by dividing the mean peak areas of XPO1 occupied by b-LMB (from the eluate) by the total amount of XPO1 (from the input).
(§1) Cells were collected, washed with PBS, and lysed with RIPA Buffer (Thermo Scientific) with protease inhibitors [Complete Ultra Tablets, Mini, EDTA-free, Easy pack (Roche), PhosStop Easy (Roche)]. A portion of the lysate was reserved (input) while the rest was added to washed Dynabeads MyOne Streptavidin T1 (Invitrogen) with RIPA Buffer. Samples were incubated overnight with constant rotation at 4°C. Beads were then washed 5 times with modified RIPA (150 mM NaCl, 50 mM Tris, 1% NP-40, 0.1% Na deoxycholate, 1 mM EDTA, pH 7.8). The reserved portion of lysates (input) and the beads were each mixed with Protein Simple buffer (Protein Simple), DTT (Invitrogen), and fluorescent standards (Protein Simple), then boiled at 95°C for 10 min. Eluates and inputs were analyzed using a capillary western method (Peggy Sue; Protein Simple) with the following primary antibodies: XPO1 (Santa Cruz) and β-actin (Santa Cruz). Capillary westerns were performed by SBH Sciences (Natick, MA). Peak areas corresponding to the protein molecular weight of XPO1 and actin were compared for sample inputs, while the ratio of XPO1 peak areas in eluate to input (ratio of bound or free-fraction XPO1) versus compound concentration were used in XLFit model 205 to calculate 50% and 90% occupancy curves.

XPO1 [3] = target: T1, XPO1; assay: XPO1 occupancy assay in human PBMCs treated ex vivo; type: cell-based; parameters: performed ex vivo on PBMCs isolated from pooled healthy donor blood; host or cells: human PBMCs from pooled healthy donor blood, fresh or revived after cryopreservation; conditions: then 1 nM b-LMB 1 hour
Description: as §1

[4] = read-out: Selinexor IC50 (μM), MTT

T1 sequence (O14980 whole entry): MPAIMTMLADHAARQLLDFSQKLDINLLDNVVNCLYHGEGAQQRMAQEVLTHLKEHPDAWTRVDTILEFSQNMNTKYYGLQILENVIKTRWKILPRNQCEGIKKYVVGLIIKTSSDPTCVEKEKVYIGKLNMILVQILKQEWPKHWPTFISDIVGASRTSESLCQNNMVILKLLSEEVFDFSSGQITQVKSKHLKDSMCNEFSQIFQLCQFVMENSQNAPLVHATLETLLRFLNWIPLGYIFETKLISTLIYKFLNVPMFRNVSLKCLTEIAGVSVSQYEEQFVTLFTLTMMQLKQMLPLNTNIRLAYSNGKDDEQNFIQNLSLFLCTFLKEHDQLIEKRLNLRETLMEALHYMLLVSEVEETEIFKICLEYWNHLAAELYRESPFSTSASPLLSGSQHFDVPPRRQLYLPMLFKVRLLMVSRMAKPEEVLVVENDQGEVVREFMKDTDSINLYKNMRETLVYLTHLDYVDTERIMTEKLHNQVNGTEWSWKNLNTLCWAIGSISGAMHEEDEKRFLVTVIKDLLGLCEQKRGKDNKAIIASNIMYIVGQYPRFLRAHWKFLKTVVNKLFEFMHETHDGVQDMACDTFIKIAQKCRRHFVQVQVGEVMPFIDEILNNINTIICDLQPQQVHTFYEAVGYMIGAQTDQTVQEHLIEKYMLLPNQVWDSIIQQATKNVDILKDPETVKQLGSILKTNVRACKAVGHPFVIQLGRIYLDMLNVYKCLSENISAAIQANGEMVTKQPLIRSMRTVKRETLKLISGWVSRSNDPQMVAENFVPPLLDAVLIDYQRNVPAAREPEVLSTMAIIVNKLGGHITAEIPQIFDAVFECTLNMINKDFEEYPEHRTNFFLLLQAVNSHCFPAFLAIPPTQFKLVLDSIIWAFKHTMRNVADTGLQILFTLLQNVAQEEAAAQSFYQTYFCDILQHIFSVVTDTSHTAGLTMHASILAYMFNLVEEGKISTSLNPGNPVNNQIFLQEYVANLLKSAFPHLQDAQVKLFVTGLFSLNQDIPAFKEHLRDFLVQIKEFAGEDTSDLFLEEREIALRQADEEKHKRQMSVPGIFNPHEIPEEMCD

## O=C(/C=C\n1cnc(-c2cc(C(F)(F)F)cc(C(F)(F)F)c2)n1)NNc1cnccn1 [Selinexor, selinexor]
MM.1S; 72 hours, read-out: IC50
  pIC50: 7.70
MM.1S; [4]
  IC50: 0.02 µM
AML2; 72 hours, read-out: IC50
  pIC50: 7.05
AML2; [4]
  IC50: 0.09 µM
AML3; 72 hours, read-out: IC50
  pIC50: 6.57
AML3; [4]
  IC50: 0.27 µM
HT1080
  IC50: 0.07 µM
HEL
  IC50: 0.35 µM
Kasumi-6
  IC50: 0.53 µM
THP-1
  IC50: 1.06 µM
A549
  IC50: 3 µM
UCH1
  IC50: 7 µM
LS174T
  IC50: > 10 µM
[1]
  Tmax: ~4 h
  near complete plasma clearance by (time post-dose): ~24 h
XPO1 [2]; A549
  90% Occupancy selinexor: 0.56 µM
XPO1 [2]; AML2
  90% Occupancy selinexor: 0.22 µM
XPO1 [2]; AML3
  90% Occupancy selinexor: 0.46 µM
XPO1 [2]; ASPS-KY
  90% Occupancy selinexor: 0.72 µM
XPO1 [2]; HCT-116
  90% Occupancy selinexor: 0.76 µM
XPO1 [2]; HEL
  90% Occupancy selinexor: 0.31 µM
XPO1 [2]; HT1080
  90% Occupancy selinexor: 1.35 µM
XPO1 [2]; HT1080 resistant
  90% Occupancy selinexor: 1.67 µM
XPO1 [2]; Kasumi-6
  90% Occupancy selinexor: 0.57 µM
XPO1 [2]; LS174T
  90% Occupancy selinexor: 0.38 µM
XPO1 [2]; MM.1S
  90% Occupancy selinexor: 0.48 µM
XPO1 [2]; MM.1S cells, SINE compound 1 hour, then 1 nM b-LMB […]
  Avg 90% Occupancy (μM): 0.52 +/− 0.05 (n = 2) μM
XPO1 [2]; MM.1S cells, followed by 0.1 μM KPT-9058 as probe
  90% Occupancy: 0.1 µM and 0.10 µM
XPO1 [2]; MV-4–11
  90% Occupancy selinexor: 0.61 µM
XPO1 [2]; Rev-GFP U2OS cells, selinexor 1 hour, then 1 nM b-LMB […]
  90% of XPO1 occupancy: 0.48 µM
XPO1 [2]; Rev-GFP U2OS, selinexor 4 hours, 0 hours post washout, 1 nM b-LMB
  90% Occupancy: 0.16 µM
XPO1 [2]; Rev-GFP U2OS, selinexor 4 hours, 4 hours post washout, 1 nM b-LMB
  90% Occupancy: 2.87 µM
XPO1 [2]; Rev-GFP U2OS, selinexor 4 hours, 24 hours post washout, 1 nM b-LMB
  90% Occupancy: > 10 µM
XPO1 [2]; Rev-GFP U2OS, selinexor 4 hours, 48 hours post washout, 1 nM b-LMB
  90% Occupancy: > 10 µM
XPO1 [2]; Rev-GFP U2OS, selinexor 4 hours, 72 hours post washout, 1 nM b-LMB
  90% Occupancy: > 10 µM
XPO1 [2]; Rev-GFP U2OS, selinexor 4 hours, 96 hours post washout, 1 nM b-LMB
  90% Occupancy: > 10 µM
XPO1 [2]; THP-1
  90% Occupancy selinexor: 0.94 µM
XPO1 [2]; UCH1
  90% Occupancy selinexor: 0.65 µM
XPO1 [2]; UCH2
  90% Occupancy selinexor: 0.89 µM
XPO1 [3]; fresh human PBMCs, selinexor 1 hour
  90% Occupancy: > 0.5 µM
XPO1 [3]; human PBMCs revived from cryopreservation, selinexor 4 hours, washed
  90% Occupancy: 0.04 µM
